Here are results for 11 compounds from patent publication US20260200928A1, “THERAPEUTIC COMPOUNDS” (Sanofi, priority 2022, published 2026).

The target of the assay is T1, human IL-17A (Homo sapiens, UniProt Q16552).
T1 construct: purchased R&D Systems 7955-IL/CF
T1 sequence (Q16552 24-155): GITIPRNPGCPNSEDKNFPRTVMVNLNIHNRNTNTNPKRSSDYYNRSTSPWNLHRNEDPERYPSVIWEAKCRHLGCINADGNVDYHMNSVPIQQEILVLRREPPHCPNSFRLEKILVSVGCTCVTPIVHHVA
Kind of assay: IL-17A AlphaLISA competition assay (block of IL-17A binding to its receptor IL-17RA). The settings on record: mean IC50 (n≥2), block of IL-17A binding to IL-17RA. Put shortly:
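Human recombinant IL-17A (7.5 nM stock) pre-incubated 30 min at RT with compound, then IL-17RA/Fc (5 nM stock) added for 90 min; AlphaLISA read with anti-Fc acceptor beads, biotinylated anti-IL-17A antibody (5 nM) and streptavidin donor beads (3 h, dark). IC50 from 4-parameter logistic fit, normalised to DMSO and 4 μM reference inhibitor; n≥2.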

Structures are written as SMILES.

As to `CC(C)(C)OC(=O)N[C@H](C(=O)Nc1cc(COC(=O)NCC(F)(F)F)ccn1)C1CCC(F)(F)CC1` [Example 45, Tert-butyl (S)-(1-(4,4-difluorocyclohexyl)-2-oxo-2-((4-((((2,2,2-trifluoroethyl)carbamoyl)oxy)methyl)pyridin-2-yl)amino)ethyl)carbamate], the 50% inhibitory concentration (IC50) amounted to 10.3 µM.

As to `O=C(CCC(F)(F)F)NC(c1ccnc(NC(=O)C(NC(=O)c2nonc2C2CC2)C2CCC(F)(F)CC2)c1)C1CC1` (centres unmarked) [Example 46, 4-cyclopropyl-N-(2-((4-(cyclopropyl(4,4,4-trifluorobutan-amido)methyl)pyridin-2-yl)amino)-1-(4,4-difluorocyclohexyl)-2-oxoethyl)-1,2,5-oxadiazole-3-carboxamide], the half-inhibitory concentration (IC50) is 0.612 µM. With `Cn1nccc1C(=O)NC(C(=O)Nc1cc(C(NC(=O)CCC(F)(F)F)C2CC2)ccn1)C1CCC(F)(F)CC1` (centres unmarked) [Example 47, N-(2-((4-(cyclopropyl(4,4,4-trifluorobutanamido)methyl)pyridin-2-yl)amino)-1-(4,4-difluorocyclohexyl)-2-oxoethyl)-1-methyl-1H-pyrazole-5-carboxamide] the figure was 0.63 µM. `CC(C)n1nccc1C(=O)NC(C(=O)Nc1cc(C(NC(=O)CCC(F)(F)F)C2CC2)ccn1)C1CCC(F)(F)CC1` (centres unmarked) [Example 48, N-(2-((4-(cyclopropyl(4,4,4-trifluorobutanamido)methyl)pyridin-2-yl)amino)-1-(4,4-difluorocyclohexyl)-2-oxoethyl)-1-isopropyl-1H-pyrazole-5-carboxamide] displayed an IC50 of 0.229 µM. For the compound `CCc1nocc1C(=O)NC(C(=O)Nc1cc(C(NC(=O)CCC(F)(F)F)C2CC2)ccn1)C1CCC(F)(F)CC1` (centres unmarked) [Example 49, N-(2-((4-(cyclopropyl(4,4,4-trifluorobutanamido)methyl)pyridin-2-yl)amino)-1-(4,4-difluorocyclohexyl)-2-oxoethyl)-3-ethylisoxazole-4-carboxamide], the concentration for half-maximal inhibition (IC50) came to 0.776 µM.

`CC(C)(C)OC(=O)N[C@H](C(=O)Nc1cc(CN2C[C@@H](C(F)(F)F)NC2=O)c(F)cn1)[C@H]1CC[C@H](C)CC1` [Example 50, tert-butyl ((S)-2-((5-fluoro-4-(((S)-2-oxo-4-(trifluoromethyl)imidazolidin-1-yl)methyl)pyridin-2-yl)amino)-1-((1r,4S)-4-methylcyclohexyl)-2-oxoethyl)carbamate] came in with a half-maximal inhibitory concentration (IC50) of 2.95 µM.

The compound `Cc1cnn(C)c1Cc1ccnc(NC(=O)[C@@H](NC(=O)OC(C)(C)C)[C@H]2CC[C@H](C)CC2)c1` [Example 51, tert-butyl ((S)-2-((4-((1,4-dimethyl-1H-pyrazol-5-yl)methyl)pyridin-2-yl)amino)-1-((1r,4S)-4-methylcyclohexyl)-2-oxoethyl)carbamate] registered an IC50 of 2.08 µM. As to `Cn1nccc1C(=O)NC(C(=O)Nc1cc(Cc2ccc(=O)n(C)c2)ccn1)C1CCC(F)(F)CC1` (centres unmarked) [Example 52, N-(1-(4,4-difluorocyclohexyl)-2-((4-((1-methyl-6-oxo-1,6-dihydro-pyridin-3-yl)methyl)pyridin-2-yl)amino)-2-oxoethyl)-1-methyl-1H-pyrazole-5-carboxamide], the IC50 stood at 23.9 µM. Regarding `Cc1cnn(C)c1Cc1ccnc(NC(=O)C(NC(=O)c2ccnn2C)C2CCC(F)(F)CC2)c1` (centres unmarked) [Example 53], the IC50 came to 3.88 µM. The compound `Cn1nccc1C(=O)NC(C(=O)Nc1cc(Cc2ccn(C)c(=O)c2)ccn1)C1CCC(F)(F)CC1` (centres unmarked) [Example 54, N-(1-(4,4-difluorocyclohexyl)-2-((4-((1-methyl-2-oxo-1,2-dihydro-pyridin-4-yl)methyl)pyridin-2-yl)amino)-2-oxoethyl)-1-methyl-1H-pyrazole-5-carboxamide] yielded a concentration for half-maximal inhibition (IC50) of 4.76 µM. Regarding `Cc1cnn(C)c1Cc1ccnc(NC(=O)[C@@H](NC(=O)c2ccnn2C(C)C)[C@H]2CC[C@H](C)CC2)c1` [Example 55, N—((S)-2-((4-((1,4-dimethyl-1H-pyrazol-5-yl)methyl)pyridin-2-yl)amino)-1-((1r,4S)-4-methylcyclohexyl)-2-oxoethyl)-1-isopropyl-1H-pyrazole-5-carboxamide], the half-inhibitory concentration (IC50) amounted to 0.183 µM.
